A short description of data set [1]: Lipophilicity, logD of the compound at pH 7.4 by chromatographic method. Type of data set: physicochemical. The settings on record: buffer.
The test system of data set [2] is Bromodomain-containing protein 4 (Homo sapiens), O60885 [UNDEFINED MUTATION]. Kind of data set: Selectivity index, […] for His6-thr-tagged BRD4 BD1 (1 to 477 residues)/BD2 Y390A mutant (unknown origin) to pIC50 for His6-tagged BRD4 BD2 (1 to 477 residues)/BD1 Y97A mutant (unknown origin).
Data set [3] addresses Bromodomain-containing protein 4 (Homo sapiens, UniProt O60885, Y97A). Kind of data set: Displacement of Alexa Fluor 647 labelled ligand from His6-tagged BRD4 BD2 (1 to 477 residues)/BD1 Y97A mutant (unknown origin) after 30 mins by TR-FRET assay.
Data set [4] addresses Bromodomain-containing protein 4 (Homo sapiens, UniProt O60885, Y390A). Kind of data set: Displacement of Alexa Fluor 647 labelled ligand from His6-thr-tagged BRD4 BD1 (1 to 477 residues)/BD2 Y390A mutant (unknown origin) after 30 mins by TR-FRET assay.
Data set [5] addresses T1, ATPase family AAA domain-containing protein 2 (Homo sapiens, UniProt Q6PL18).
T1 sequence (Q6PL18 whole entry): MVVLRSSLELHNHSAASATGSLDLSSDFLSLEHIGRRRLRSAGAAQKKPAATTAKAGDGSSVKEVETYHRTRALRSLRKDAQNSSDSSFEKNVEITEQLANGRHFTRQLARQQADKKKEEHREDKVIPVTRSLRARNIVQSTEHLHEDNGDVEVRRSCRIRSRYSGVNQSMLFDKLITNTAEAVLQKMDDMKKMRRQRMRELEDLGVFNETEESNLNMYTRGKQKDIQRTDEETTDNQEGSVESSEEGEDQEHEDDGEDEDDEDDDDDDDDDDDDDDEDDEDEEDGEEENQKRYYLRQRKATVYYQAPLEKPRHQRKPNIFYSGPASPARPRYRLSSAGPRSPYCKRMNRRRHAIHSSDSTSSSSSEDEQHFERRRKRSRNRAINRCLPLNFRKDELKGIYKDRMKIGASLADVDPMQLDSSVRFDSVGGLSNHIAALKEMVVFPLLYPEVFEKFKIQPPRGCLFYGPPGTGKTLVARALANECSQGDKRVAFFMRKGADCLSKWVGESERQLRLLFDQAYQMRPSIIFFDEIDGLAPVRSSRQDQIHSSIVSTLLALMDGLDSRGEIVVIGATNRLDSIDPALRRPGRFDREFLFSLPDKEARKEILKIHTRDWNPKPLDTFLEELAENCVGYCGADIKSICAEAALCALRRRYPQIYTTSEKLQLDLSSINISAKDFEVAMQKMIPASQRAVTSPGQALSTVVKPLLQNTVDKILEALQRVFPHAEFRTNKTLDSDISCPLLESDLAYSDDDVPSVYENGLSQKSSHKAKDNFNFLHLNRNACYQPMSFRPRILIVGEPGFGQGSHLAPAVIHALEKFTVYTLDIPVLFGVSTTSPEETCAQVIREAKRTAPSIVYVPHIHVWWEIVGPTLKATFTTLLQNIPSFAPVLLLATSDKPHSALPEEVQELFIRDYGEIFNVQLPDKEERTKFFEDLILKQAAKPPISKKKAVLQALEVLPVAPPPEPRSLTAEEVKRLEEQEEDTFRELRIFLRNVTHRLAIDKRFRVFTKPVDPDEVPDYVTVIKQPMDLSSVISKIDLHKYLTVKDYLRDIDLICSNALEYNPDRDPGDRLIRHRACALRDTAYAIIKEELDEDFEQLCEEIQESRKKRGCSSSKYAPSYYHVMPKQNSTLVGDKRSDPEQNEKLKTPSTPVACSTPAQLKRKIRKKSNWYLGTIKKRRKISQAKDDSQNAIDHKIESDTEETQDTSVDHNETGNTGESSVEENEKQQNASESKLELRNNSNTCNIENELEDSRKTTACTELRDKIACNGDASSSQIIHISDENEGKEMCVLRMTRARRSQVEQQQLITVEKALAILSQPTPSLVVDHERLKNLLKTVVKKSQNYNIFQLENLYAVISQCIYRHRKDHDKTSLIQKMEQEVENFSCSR
Description: Inhibition of ATAD2 (unknown origin) by TR-FRET assay.

The values below come from ChEMBL document CHEMBL4725292 (J Med Chem, 2020).

In the case of `CO[C@H]1CNC[C@@H](OCC2CCC(F)(F)CC2)[C@@H]1Nc1ncc(-c2cncc(C)c2)c2cc(C)c(=O)[nH]c12`, in data set [1], the chromatographic logD turned out to be 3.17.

Regarding `Cc1cc2c(-c3cnn(C)c3)cnc(N[C@@H]3CCN(C)C[C@H]3C(=O)NC3CCCCC3)c2[nH]c1=O`, in data set [2], the Selectivity Index amounted to 251. The concentration for half-maximal inhibition (IC50) is 20 µM in data set [3] and 79.4 nM in data set [4]. In data set [1], the chromatographic logD was determined as 2.43.

The compound `Cc1coc(-c2cnc(N[C@@H]3CCN(C)C[C@H]3C(=O)NC3CCCCC3)c3[nH]c(=O)c(C)cc23)c1` came in with a Selectivity Index in data set [2] of 501. Besides, the IC50 in data set [3] is 20 µM; in data set [4], 39.8 nM. This compound also gave a chromatographic logD in data set [1] of 4.46.

Regarding `Cc1cc2c(-c3ccco3)cnc(N[C@H]3CCNC[C@@H]3C(=O)NC3CCCCC3)c2[nH]c1=O`, the IC50 in data set [3] is 10 µM; in data set [4], 1580 nM. In data set [1], this compound displayed a chromatographic logD of 3.12.

For the compound `Cc1ccoc1-c1cnc(N[C@@H]2CCN(C)C[C@H]2C(=O)NC2CCCCC2)c2[nH]c(=O)c(C)cc12`, the Selectivity Index in data set [2] was 316. Also, the IC50 in data set [3] was 15.8 µM; in data set [4], 50.1 nM. Also, the chromatographic logD in data set [1] stood at 4.35.

Regarding `Cc1ccc(-c2cnc(N[C@@H]3CCN(C)C[C@H]3C(=O)NC3CCCCC3)c3[nH]c(=O)c(C)cc23)o1`, the Selectivity Index in data set [2] was 631. Besides, the IC50 in data set [3] is 15.8 µM; in data set [4], 25.1 nM. This compound registered a chromatographic logD in data set [1] of 4.33.

Compound `Cc1cc2c(-c3cccs3)cnc(N[C@@H]3CCN(C)C[C@H]3C(=O)NC3CCCCC3)c2[nH]c1=O` yielded a Selectivity Index in data set [2] of 251. The half-maximal inhibitory concentration (IC50) is 3.98 µM in data set [3] and 15.8 nM in data set [4]. In data set [1], this compound came in with a chromatographic logD of 4.61.

On to `Cc1ccc(-c2cnc(N[C@@H]3CCN(C)C[C@H]3C(=O)NC3CCCCC3)c3[nH]c(=O)c(C)cc23)s1`, for which the Selectivity Index in data set [2] is greater than 794. The IC50 in data set [3] was greater than 50.1 µM; in data set [4], 63.1 nM. The compound also registered a chromatographic logD in data set [1] of 5.3.

In turn, `Cc1csc(-c2cnc(N[C@@H]3CCN(C)C[C@H]3C(=O)NC3CCCCC3)c3[nH]c(=O)c(C)cc23)c1` showed a Selectivity Index in data set [2] of 316. For the same compound, the IC50 in data set [3] was 15.8 µM; in data set [4], 50.1 nM. This compound registered a chromatographic logD in data set [1] of 5.27.

In data set [2], `Cc1cc2c(C3=CCCC3)cnc(N[C@@H]3CCNC[C@H]3C(=O)NC3CCCCC3)c2[nH]c1=O` (mixture of isomers) had a Selectivity Index of 200. The half-maximal inhibitory concentration (IC50) in data set [3] was 39.8 µM; in data set [4], 200 nM. Besides, the chromatographic logD in data set [1] was 4.4.

`Cc1cc2ccnc(N[C@@H]3CCNC[C@H]3C(=O)N[C@@H]3CCCOC3)c2[nH]c1=O` (mixture of isomers) registered a Selectivity Index in data set [2] greater than 10. Also, the IC50 in data set [5] is greater than 39.8 µM; in data set [3], greater than 50.1 µM; in data set [4], 3980 nM. In data set [1], this compound showed a chromatographic logD of 0.85.

In data set [2], `Cc1cc2c(-c3ccccc3)cnc(N[C@@H]3CCNC[C@H]3C(=O)NC3CCCCC3)c2[nH]c1=O` (mixture of isomers) displayed a Selectivity Index of 40. The IC50 in data set [3] was 25.1 µM; in data set [4], 631 nM. The chromatographic logD in data set [1] was determined as 3.36.

For `Cc1cc2ccnc(N[C@@H]3CCNC[C@H]3C(=O)NCC3CCCC3)c2[nH]c1=O` (mixture of isomers), in data set [2], the Selectivity Index is greater than 30. The IC50 was greater than 39.8 µM in data set [5], greater than 50.1 µM in data set [3] and 1580 nM in data set [4]. In data set [1], this compound registered a chromatographic logD of 2.36.

In data set [2], `Cc1cc2ccnc(N[C@@H]3CCNC[C@H]3C(=O)NC3CCOCC3)c2[nH]c1=O` (mixture of isomers) came in with a Selectivity Index of 5. Also, the half-inhibitory concentration (IC50) in data set [5] was greater than 39.8 µM; in data set [3] it was 12.6 µM; in data set [4] it was 2510 nM. Also, in data set [1], the chromatographic logD is 0.71.

On to `Cc1cc2c(C3=CCOCC3)cnc(N[C@@H]3CCNC[C@H]3C(=O)NC3CCCCC3)c2[nH]c1=O` (mixture of isomers), for which, in data set [2], the Selectivity Index turned out to be 30. Moreover, the IC50 was 39.8 µM in data set [3] and 1260 nM in data set [4]. The chromatographic logD in data set [1] is 2.07.

As for `Cc1cc2c(-c3cnn(C)c3)cnc(N[C@@H]3CCNC[C@H]3C(=O)NC3CCCCC3)c2[nH]c1=O` (mixture of isomers), in data set [2], the Selectivity Index was 100. For the same compound, the values for the concentration for half-maximal inhibition (IC50) in data set [3] and in data set [4] were 15.8 µM and 158 nM, respectively. The compound further yielded a chromatographic logD in data set [1] of 1.47.

Take `Cc1cc2ccnc(N[C@@H]3CCNC[C@H]3C(=O)NCC(C)C)c2[nH]c1=O` (mixture of isomers): in data set [2], the Selectivity Index is greater than 25. The half-maximal inhibitory concentration (IC50) in data set [5] is greater than 39.8 µM; in data set [3] it was greater than 50.1 µM; in data set [4] it was 2000 nM. The same compound gave a chromatographic logD in data set [1] of 1.6.

As for `Cc1cc2c(-c3ccsc3)cnc(N[C@@H]3CCNC[C@H]3C(=O)NC3CCCCC3)c2[nH]c1=O` (mixture of isomers), in data set [2], the Selectivity Index was greater than 501. The IC50 in data set [3] was greater than 50.1 µM; in data set [4] it was 100 nM. Moreover, the chromatographic logD in data set [1] is 3.79.

Turning to `Cc1cc2c(C3=CCCCC3)cnc(N[C@@H]3CCNC[C@H]3C(=O)NC3CCCCC3)c2[nH]c1=O` (mixture of isomers), the Selectivity Index in data set [2] was determined as 10. In addition, the half-inhibitory concentration (IC50) in data set [3] is 12.6 µM; in data set [4], 1000 nM. Besides, the chromatographic logD in data set [1] was 4.78.

Compound `Cc1cc2ccnc(N[C@@H]3CCNC[C@H]3C(=O)N[C@H]3CCCOC3)c2[nH]c1=O` (mixture of isomers) displayed a Selectivity Index in data set [2] greater than 2. Further, the 50% inhibitory concentration (IC50) is greater than 39.8 µM in data set [5], greater than 50.1 µM in data set [3] and 25100 nM in data set [4]. In data set [1], this compound had a chromatographic logD of 0.98.

In data set [2], `Cc1cc2ccnc(N[C@@H]3CCNC[C@H]3C(=O)NCC3CC3)c2[nH]c1=O` (mixture of isomers) displayed a Selectivity Index greater than 15. Besides, the values for the 50% inhibitory concentration (IC50) in data set [5], in data set [3] and in data set [4] were greater than 39.8 µM, greater than 50.1 µM and 3160 nM, respectively. In data set [1], this compound returned a chromatographic logD of 1.05.

Compound `Cc1cc2c(-c3ccoc3)cnc(N[C@@H]3CCNC[C@H]3C(=O)NC3CCCCC3)c2[nH]c1=O` (mixture of isomers) yielded a Selectivity Index in data set [2] of 316. For the same compound, the results for the IC50 in data set [3] and in data set [4] were 12.6 µM and 39.8 nM, respectively. Further, the chromatographic logD in data set [1] was found to be 2.91.

With `C/C=C/c1cnc(N[C@@H]2CCNC[C@H]2C(=O)NC2CCCCC2)c2[nH]c(=O)c(C)cc12` (racemic), the Selectivity Index in data set [2] is 250. Moreover, the IC50 is 31.6 µM in data set [3] and 126 nM in data set [4]. In data set [1], the chromatographic logD amounted to 3.55.

Compound `Cc1cc2c(-c3cccs3)cnc(N[C@@H]3CCNC[C@H]3C(=O)NC3CCCCC3)c2[nH]c1=O` (racemic) gave a Selectivity Index in data set [2] of 630. Moreover, the concentration for half-maximal inhibition (IC50) in data set [3] was 31.6 µM; in data set [4] it was 50.1 nM. Besides, the chromatographic logD in data set [1] was determined as 3.23.

Consider `Cc1ccsc1-c1cnc(N[C@@H]2CCN(C)C[C@H]2C(=O)NC2CCCCC2)c2[nH]c(=O)c(C)cc12` (relative stereo), for which the Selectivity Index in data set [2] stood at 316. In addition, the IC50 in data set [3] is 31.6 µM; in data set [4] it was 100 nM. The same compound gave a chromatographic logD in data set [1] of 5.13.

In data set [2], `Cc1cncc(-c2cnc(N[C@@H]3CCNC[C@H]3C(=O)NC3CCCCC3)c3[nH]c(=O)c(C)cc23)c1` (relative stereo) registered a Selectivity Index greater than 40. For the same compound, the values for the half-inhibitory concentration (IC50) in data set [3] and in data set [4] were greater than 50.1 µM and 1260 nM, respectively. In data set [1], this compound displayed a chromatographic logD of 2.51.
